Measurements from patent EP1433789A1, “Pyrrolopyrazines and their use as selective apoptosis inducers” (Aponetics AG, priority 2002, dated 2004).

How the values were obtained:
A20 [1] = experiment: Hoechst 33342 nuclear staining (Table 3); assay type: cell-based, mouse; parameters: key: 0 relating to no activity; 1 relating to weak activity comprising less than 50% of the cells; score 2 relating to strong activity comprising more than 50% of the cells
How it was run: (§1)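 Adherent cells (3-5×10^3, pre-spread 24 h) or suspension cells (8-10×10^3) treated with compounds at 10, 3, 1 and 0.3 µM for 24 or 48 h, then Hoechst 33342 stained for 30 min. Apoptotic nuclear morphology scored by fluorescence microscopy: 0 none, 1 weak (<50% cells), 2 strong (>50% cells).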

Jurkat [2] = experiment: MTS proliferation assay; assay type: cell-based; conditions: Homo sapiens, 72 h incubation
How it was run: (§2)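 Cells (1.5*10^3–10^4/well) seeded 24 h before treatment, then exposed 72 h to compound at 10, 3, 1 or 0.3 µM final (≤5% DMSO in added medium). Viability by MTS reagent, 3 h further incubation, absorbance at 492 nm.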

HeLa [3] = experiment: MTS proliferation assay; assay type: cell-based; conditions: Homo sapiens, 72 h incubation
How it was run: as §2

K562 = experiment: MTS proliferation assay; assay type: cell-based; conditions: Homo sapiens, K562, 72 h incubation
How it was run: as §2

A20 [4] = experiment: AnnexinV/7-AAD staining; assay type: cell-based, mouse; conditions: A20, 10 µM, 24 h treatment
How it was run: (§3)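 Cells treated with compound at 10 µM final for 24 h, then stained with AnnexinV-GST/anti-GST Alexa 488 and 7-AAD and analysed by flow cytometry. Percent positive cells scored as 0 (<10%), 1 (10–50%) or 2 (>50%).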

Jurkat [5] = experiment: BrdU incorporation (proliferation); assay type: cell-based, human; parameters: key: 0 for no activity; 1 for a moderate inhibition; 2 for strong inhibition of proliferation; conditions: 48 h
Procedure: (§4) Adherent cells are seeded out at 2 - 4*10^4 cells/well/ml in 24 well tissue culture plates 24 h prior to treatment. Suspension cells are seeded out at 2*10^5 cells/ml/well in 24 well plates. Compounds are added leading to final concentrations of 3 µM and 10 µM, respectively. Subsequently, BrdU (Molecular Probes #B-23151) at 10 µM final concentration is added and the plates are incubated for 48 h. After the incubation cells are processed according to standard procedures. The detection of the incorporated BrdU is done with the anti-bromodeoxyuridine Mab PRB-1, Alexa Fluor 660 conjugate (Molecular Probes #A-21306). The analysis is performed on a FACSCalibur™ by monitoring the fluorescence activity on FL3. The readout reflects DNA synthesis which is a hallmark for proliferation. The scores are defined the following: 0 for no activity, 1 for a moderate inhibition and 2 for strong inhibition of proliferation. Table 7 indicates inhibitory activities of several tested compounds on proliferation.

HeLa [6] = experiment: BrdU incorporation (proliferation); assay type: cell-based, human; parameters: key: 0 for no activity; 1 for a moderate inhibition; 2 for strong inhibition of proliferation; conditions: 48 h
Procedure: as §4

Jurkat [7] = experiment: Hoechst 33342 nuclear staining (Table 3); assay type: cell-based, human; parameters: key: 0 relating to no activity; 1 relating to weak activity comprising less than 50% of the cells; score 2 relating to strong activity comprising more than 50% of the cells
How it was run: as §1

HeLa [8] = experiment: Hoechst 33342 nuclear staining (Table 3); assay type: cell-based, human; parameters: key: 0 relating to no activity; 1 relating to weak activity comprising less than 50% of the cells; score 2 relating to strong activity comprising more than 50% of the cells
How it was run: as §1

Jurkat [9] = experiment: AnnexinV/7-AAD staining; assay type: cell-based, human; conditions: 10 µM, 24 h treatment
How it was run: as §3

HeLa [10] = experiment: AnnexinV/7-AAD staining; assay type: cell-based, human; conditions: 10 µM, 24 h treatment
How it was run: as §3

Ramos = experiment: AnnexinV/7-AAD staining; assay type: cell-based, human; conditions: 10 µM, 24 h treatment
How it was run: as §3

Structure (SMILES) | Hoechst 33342 nuclear staining (A20 [1]; A20, 24h, conc 0.3 (µM)) | Hoechst 33342 nuclear staining (A20 [1]; A20, 24h, conc 1 (µM)) | Hoechst 33342 nuclear staining (A20 [1]; A20, 24h, conc 3 (µM)) | Hoechst 33342 nuclear staining (A20 [1]; A20, 24h, conc 10 (µM)) | Hoechst 33342 nuclear staining (A20 [1]; A20, 48h, conc 0.3 (µM)) | Hoechst 33342 nuclear staining (A20 [1]; A20, 48h, conc 1 (µM)) | Hoechst 33342 nuclear staining (A20 [1]; A20, 48h, conc 3 (µM)) | Hoechst 33342 nuclear staining (A20 [1]; A20, 48h, conc 10 (µM)) | IC50 (Jurkat [2]) | IC50 (HeLa [3]) | IC50 (K562) | percentage of positively stained cells (AnnexinV/7-AAD staining) (A20 [4]) | BrdU incorporation (inhibition of proliferation) (Jurkat [5]; 3uM) | BrdU incorporation (inhibition of proliferation) (Jurkat [5]; 10uM) | BrdU incorporation (inhibition of proliferation) (HeLa [6]; 3uM) | Hoechst 33342 nuclear staining (Jurkat [7]; 24h, conc 0.3 (µM)) | Hoechst 33342 nuclear staining (Jurkat [7]; 24h, conc 1 (µM)) | Hoechst 33342 nuclear staining (Jurkat [7]; 24h, conc 3 (µM)) | Hoechst 33342 nuclear staining (Jurkat [7]; 24h, conc 10 (µM)) | Hoechst 33342 nuclear staining (Jurkat [7]; 48h, conc 0.3 (µM)) | other results
COc1cc2c(cc1OC)-c1c(Cl)c3nc4ccccc4nc3n1C(C)C2 (stereo not drawn) [compound 12] | 0 | 0 | 0 | 0 | 0 | 0 | 0 | 2 (score 2 relating to strong activity comprising more than 50% of the cells) | > 10 µM | > 10 µM | > 10 µM | 2 (score 2 relates to more than 50% positivity) | 2 | 2 | 1 | 0 | 0 | 1 (1 relating to weak activity comprising less than 50% of the cells) | 2 (score 2 relating to strong activity comprising more than 50% of the cells) | 1 (1 relating to weak activity comprising less than 50% of the cells) | BrdU incorporation (inhibition of proliferation) (HeLa [6]; 10uM): 1; Hoechst 33342 nuclear staining (Jurkat [7]; 48h, conc 1 (µM)): 2 (score 2 relating to strong activity comprising more than 50% of the cells); Hoechst 33342 nuclear staining (Jurkat [7]; 48h, conc 3 (µM)): 2 (score 2 relating to strong activity comprising more than 50% of the cells); Hoechst 33342 nuclear staining (Jurkat [7]; 48h, conc 10 (µM)): 2 (score 2 relating to strong activity comprising more than 50% of the cells); Hoechst 33342 nuclear staining (HeLa [8]; 24h, conc 0.3 (µM)): 0; Hoechst 33342 nuclear staining (HeLa [8]; 24h, conc 1 (µM)): 0; Hoechst 33342 nuclear staining (HeLa [8]; 24h, conc 3 (µM)): 0; Hoechst 33342 nuclear staining (HeLa [8]; 24h, conc 10 (µM)): 0; Hoechst 33342 nuclear staining (HeLa [8]; 48h, conc 0.3 (µM)): 0; Hoechst 33342 nuclear staining (HeLa [8]; 48h, conc 1 (µM)): 1 (1 relating to weak activity comprising less than 50% of the cells); Hoechst 33342 nuclear staining (HeLa [8]; 48h, conc 3 (µM)): 2 (score 2 relating to strong activity comprising more than 50% of the cells); Hoechst 33342 nuclear staining (HeLa [8]; 48h, conc 10 (µM)): 2 (score 2 relating to strong activity comprising more than 50% of the cells); percentage of positively stained cells (AnnexinV/7-AAD staining) (Jurkat [9]): 2 (score 2 relates to more than 50% positivity); percentage of positively stained cells (AnnexinV/7-AAD staining) (HeLa [10]): 2 (score 2 relates to more than 50% positivity); percentage of positively stained cells (AnnexinV/7-AAD staining) (Ramos): 2 (score 2 relates to more than 50% positivity)
CCC1Cc2cc(OC)c(OC)cc2-c2cc3nc4ccccc4nc3n21 (stereo not drawn) [compound 13] | 0 | 0 | 0 | 0 | 0 | 0 | 0 | 0 | 1 to 10 µM | > 10 µM | > 10 µM | 2 (score 2 relates to more than 50% positivity) | 2 | 2 | 1 | 0 | 0 | 1 (1 relating to weak activity comprising less than 50% of the cells) | 2 (score 2 relating to strong activity comprising more than 50% of the cells) | 0 | Hoechst 33342 nuclear staining (Jurkat [7]; 48h, conc 1 (µM)): 2 (score 2 relating to strong activity comprising more than 50% of the cells); Hoechst 33342 nuclear staining (Jurkat [7]; 48h, conc 3 (µM)): 2 (score 2 relating to strong activity comprising more than 50% of the cells); Hoechst 33342 nuclear staining (Jurkat [7]; 48h, conc 10 (µM)): 2 (score 2 relating to strong activity comprising more than 50% of the cells); Hoechst 33342 nuclear staining (HeLa [8]; 24h, conc 0.3 (µM)): 0; Hoechst 33342 nuclear staining (HeLa [8]; 24h, conc 1 (µM)): 0; Hoechst 33342 nuclear staining (HeLa [8]; 24h, conc 3 (µM)): 0; Hoechst 33342 nuclear staining (HeLa [8]; 24h, conc 10 (µM)): 0; Hoechst 33342 nuclear staining (HeLa [8]; 48h, conc 0.3 (µM)): 0; Hoechst 33342 nuclear staining (HeLa [8]; 48h, conc 1 (µM)): 0; Hoechst 33342 nuclear staining (HeLa [8]; 48h, conc 3 (µM)): 2 (score 2 relating to strong activity comprising more than 50% of the cells); Hoechst 33342 nuclear staining (HeLa [8]; 48h, conc 10 (µM)): 2 (score 2 relating to strong activity comprising more than 50% of the cells); percentage of positively stained cells (AnnexinV/7-AAD staining) (Jurkat [9]): 2 (score 2 relates to more than 50% positivity); percentage of positively stained cells (AnnexinV/7-AAD staining) (HeLa [10]): 1 (score 1 relates to more than 10% but less than 50%); percentage of positively stained cells (AnnexinV/7-AAD staining) (Ramos): 2 (score 2 relates to more than 50% positivity)
